Reference: patent US10800732B2, “Substituted malonamides and their use as antibacterial drugs” (National Taiwan University, priority 2015, dated 2020)
≈ marks a conversion by molar mass, not a printed value. Like-named read-outs stand apart in the source and are kept apart here.

Legend:
S. aureus NCTC 8325 [1] = test: MIC, S. aureus NCTC 8325 (CLSI broth microdilution / agar dilution); format: cell-based, Staphylococcus aureus
MRSA ATCC 33592 = test: MIC, MRSA ATCC 33592; format: cell-based, methicillin-resistant Staphylococcus aureus; settings: Staphylococcus aureus, MRSA ATCC 33592, read-out: MIC
[2] = tested on: S. epidermidis ATCC 12228; test: MIC, S. epidermidis ATCC 12228; format: cell-based; settings: Staphylococcus epidermidis, ATCC12228; S. epidermidis ATCC 12228; read-out: MIC
MRSA ATCC 49476 = test: MIC, MRSA ATCC 49476; format: cell-based, methicillin-resistant Staphylococcus aureus; settings: Staphylococcus aureus; MRSA ATCC 49476; read-out: MIC
MRSA SCCmec VT = test: MIC, MRSA SCCmec VT; format: cell-based, methicillin-resistant Staphylococcus aureus; settings: Staphylococcus aureus; MRSA SCCmec VT; read-out: MIC
S. aureus NCTC 8325 [3] = format: cell-based, Staphylococcus aureus; settings: for fold MIC change (resistance): sub-inhibitory concentration for 30 consecutive days; for time to over 64-fold MIC change: sub-inhibitory concentration, serial passage
[4] = tested on: S. epidermidis ATCC 35984; test: MIC, S. epidermidis ATCC 35984; format: cell-based; settings: Staphylococcus epidermidis, ATCC35984; S. epidermidis ATCC 35984; read-out: MIC
[5] = Staphylococcus aureus, MSSA NCTC 8325, Table 6, read-out: MIC
[6] = Staphylococcus aureus, NCTC8325
[7] = Staphylococcus aureus, NCTC8325, S. aureus NCTC 8325, read-out: MIC

Compound	MIC (S. aureus NCTC 8325 [1]; [5])	MIC (MRSA ATCC 33592; Table 6)	other results
C#Cc1cccc(NC(=O)C2(C(=O)Nc3cccc(C#C)c3)CC2)c1 [SC5021, N,N′-bis(3-ethynylphenyl)cyclopropane-1,1-dicarboxamide]	8 µg/mL (≈ 24.4 µM)	–	–
CCCNC(=O)C(CCCl)C(=O)NCCC [SC5046, 2-(2-chloroethyl)-N1,N3-dipropylmalonamide]	> 64 µg/mL	> 64 µg/mL	–
CC1COc2c(N3CCN(C)CC3)c(F)cc3c(=O)c(C(=O)O)cn1c23 (stereo not shown) [Ofloxacin]	–	–	MIC (S. aureus NCTC 8325 [1]; [6]): 0.125 µg/mL (≈ 0.346 µM); MIC [2]: 0.25 µg/mL (≈ 0.692 µM); MIC (MRSA ATCC 33592): 0.25 µg/mL (≈ 0.692 µM); MIC (MRSA ATCC 49476): 0.5 µg/mL (≈ 1.38 µM); MIC (MRSA SCCmec VT): 0.25 µg/mL (≈ 0.692 µM); fold MIC change (resistance) (S. aureus NCTC 8325 [3]): 8 fold
O=C(Nc1cccc([N+](=O)[O-])c1)C(CCCl)C(=O)Nc1cccc([N+](=O)[O-])c1 [SC5028, 2-(2-chloroethyl)-N^1,N^3-bis(3-nitrophenyl)malonamide]	> 64 µg/mL	–	–
O=C(NC1CCCCC1)C(CCCl)C(=O)NC1CCCCC1 [SC5048, 2-(2-chloroethyl)-N1,N3-dicyclohexylmalonamide]	> 64 µg/mL	> 64 µg/mL	–
CN(C)[C@@H]1C(O)=C(C(N)=O)C(=O)[C@@]2(O)C(O)=C3C(=O)c4c(O)cccc4[C@@](C)(O)[C@H]3C[C@@H]12 [Tetracycline]	–	–	MIC [2]: 8 µg/mL (≈ 18 µM); MIC [4]: 0.25 µg/mL (≈ 0.563 µM); MIC (MRSA ATCC 33592): > 64 µg/mL; MIC (MRSA ATCC 49476): > 64 µg/mL; MIC (MRSA SCCmec VT): 32 µg/mL (≈ 72 µM)
O=C(Nc1ccc(OC(F)(F)F)cc1)C(CCCl)C(=O)Nc1ccc(OC(F)(F)F)cc1 [SC5024, 2-(2-chloroethyl)-N^1,N^3-bis(4-(trifluoromethoxy)phenyl)malonamide]	1 µg/mL (≈ 2.06 µM)	1 µg/mL (≈ 2.06 µM)	–
O=C(Nc1ccccc1)C(CCCl)C(=O)Nc1ccccc1 [SC5022, 2-(2-chloroethyl)-N^1,N^3-diphenylmalonamide]	> 8 µg/mL	–	–
CC1(C)S[C@@H]2[C@H](NC(=O)[C@H](N)c3ccccc3)C(=O)N2[C@H]1C(=O)O [Ampicillin]	–	–	MIC (S. aureus NCTC 8325 [1]; [7]): 0.25 µg/mL (≈ 0.715 µM); MIC [2]: 32 µg/mL (≈ 91.6 µM); MIC [4]: > 32 µg/mL; MIC (MRSA ATCC 33592): > 64 µg/mL; MIC (MRSA ATCC 49476): > 64 µg/mL; MIC (MRSA SCCmec VT): 64 µg/mL (≈ 183 µM); time to over 64-fold MIC change (S. aureus NCTC 8325 [3]): ≤ 27 days
O=C(Nc1cc(Cl)cc(Cl)c1)C(CCCl)C(=O)Nc1cc(Cl)cc(Cl)c1 [SC5025, 2-(2-chloroethyl)-N^1,N^3-bis(3,5-dichlorophenyl)malonamide]	0.25 µg/mL (≈ 0.55 µM)	0.25 µg/mL (≈ 0.55 µM)	–
C=CCC(C(=O)Nc1cccc(CC)c1)C(=O)Nc1cccc(CC)c1 [SC5039, 2-allyl-N^1,N^3-bis(3-ethylphenyl)malonamide]	> 32 µg/mL	> 32 µg/mL	–
O=C(Nc1cccc(Cl)c1)C(CCCl)C(=O)Nc1cccc(Cl)c1 [SC5027, 2-(2-chloroethyl)-N^1,N^3-bis(3-chlorophenyl)malonamide]	> 8 µg/mL	–	–
CCCCNC(=O)C(CCCl)C(=O)Nc1ccc(Cl)c(C(F)(F)F)c1 (stereo not shown) [SC5052, N1-butyl-N3-(4-chloro-3-(trifluoromethyl)phenyl)-2-(2-chloroethyl)malonamide]	> 64 µg/mL	> 64 µg/mL	–
C=CCC(C(=O)Nc1ccc(Cl)c(C(F)(F)F)c1)C(=O)Nc1ccc(Cl)c(C(F)(F)F)c1 [SC5037, 2-allyl-N^1,N^3-bis(4-chloro-3-(trifluoromethyl)phenyl)malonamide]	8 µg/mL (≈ 16 µM)	> 32 µg/mL	–
C#Cc1cccc(NC(=O)C(CCCl)C(=O)Nc2cccc(C#C)c2)c1 [SC5026, 2-(2-chloroethyl)-N^1,N^3-bis(3-ethynylphenyl)malonamide]	> 8 µg/mL	–	–
CO[C@H]1/C=C/O[C@@]2(C)Oc3c(C)c(O)c4c(O)c(c(/C=N/N5CCN(C)CC5)c(O)c4c3C2=O)NC(=O)/C(C)=C\C=C\[C@H](C)[C@H](O)[C@@H](C)[C@@H](O)[C@@H](C)[C@H](OC(C)=O)[C@@H]1C [Rifampicin]	–	–	MIC (S. aureus NCTC 8325 [1]; [6]): 0.125 µg/mL (≈ 0.152 µM); MIC [2]: < 0.004 µg/mL; MIC (MRSA ATCC 33592): > 64 µg/mL; MIC (MRSA ATCC 49476): 0.25 µg/mL (≈ 0.304 µM); MIC (MRSA SCCmec VT): 0.5 µg/mL (≈ 0.608 µM); time to over 64-fold MIC change (S. aureus NCTC 8325 [3]): ≤ 6 days
O=C(Nc1cccc(O)c1)C(CCCl)C(=O)Nc1cccc(O)c1 [SC5031, 2-(2-chloroethyl)-N^1,N^3-bis(3-hydroxyphenyl)malonamide]	> 64 µg/mL	–	–

Compound	MIC (S. aureus NCTC 8325 [1]; [5])	MIC (MRSA ATCC 33592; Table 6)	other results
O=C(Nc1ccc(Cl)c(C(F)(F)F)c1)C1(C(=O)Nc2ccc(Cl)c(C(F)(F)F)c2)CC1 [SC5020, N,N′-bis(4-chloro-3-(trifluoromethyl)phenyl)cyclopropane-1,1-dicarboxamide]	> 8 µg/mL	–	–
O=C(Nc1ccc([N+](=O)[O-])c(C(F)(F)F)c1)C(CCCl)C(=O)Nc1ccc([N+](=O)[O-])c(C(F)(F)F)c1 [SC5034, 2-(2-chloroethyl)-N^1,N^3-bis(4-nitro-3-(trifluoromethyl)phenyl)malonamide]	1 µg/mL (≈ 1.84 µM)	–	–
O=C(Nc1cccc(C(F)(F)F)c1)C(CCCl)C(=O)Nc1cccc(C(F)(F)F)c1 [SC5023, 2-(2-chloroethyl)-N^1,N^3-bis(3-(trifluoromethyl)phenyl)malonamide]	2 µg/mL (≈ 4.42 µM)	1 µg/mL (≈ 2.21 µM)	–
C=CCNC(=O)C(CCCl)C(=O)NCC=C [SC5051, N1,N3-diallyl-2-(2-chloroethyl)malonamide]	> 64 µg/mL	> 64 µg/mL	–
CCCCNC(=O)C(CCCl)C(=O)NCCCC [SC5047, N1,N3-dibutyl-2-(2-chloroethyl)malonamide]	> 64 µg/mL	> 64 µg/mL	–
O=C(N[C@H](CO)[C@H](O)c1ccc([N+](=O)[O-])cc1)C(Cl)Cl [Chloramphenicol]	–	–	MIC (S. aureus NCTC 8325 [1]; [7]): 4 µg/mL (≈ 12.4 µM); MIC [2]: 2 µg/mL (≈ 6.19 µM); MIC (MRSA ATCC 33592): 32 µg/mL (≈ 99 µM); MIC (MRSA ATCC 49476): 8 µg/mL (≈ 24.8 µM); MIC (MRSA SCCmec VT): 64 µg/mL (≈ 198 µM); fold MIC change (resistance) (S. aureus NCTC 8325 [3]): no resistance
C#Cc1cccc(NC(=O)C(CC=C)C(=O)Nc2cccc(C#C)c2)c1 [SC5038, 2-allyl-N^1,N^3-bis(3-ethynylphenyl)malonamide]	> 32 µg/mL	> 32 µg/mL	–
N^1,N^3-bis(4-pentafluorosulfurphenyl)-2-(2-chloroethyl)malonamide [SC5033]	–	–	MIC (S. aureus NCTC 8325 [1]; MSSA NCTC 8325, Table 6): 32 µg/mL
O=C(Nc1cc(Cl)cc(Cl)c1)C(CCCl)C(=O)Nc1cc(C(F)(F)F)cc(C(F)(F)F)c1 (stereo not shown) [SC5036, N^1-(3,5-bis(trifluoromethyl)phenyl)-2-(2-chloroethyl)-N^3-(3,5-dichlorophenyl) malonamide]	0.25 µg/mL (≈ 0.479 µM)	0.5 µg/mL (≈ 0.958 µM)	–
CCCNC(=O)C(CCCl)C(=O)Nc1ccc(Cl)c(C(F)(F)F)c1 (stereo not shown) [SC5049, N1-(4-chloro-3-(trifluoromethyl)phenyl)-2-(2-chloroethyl)-N3-propylmalonamide]	> 64 µg/mL	> 64 µg/mL	–
O=C(Nc1cc(Cl)cc(Cl)c1)C(CCCl)C(=O)Nc1ccc([N+](=O)[O-])c(C(F)(F)F)c1 (stereo not shown) [SC5041, 2-(2-chloroethyl)-N^1-(3,5-dichlorophenyl)-N^3-(4-nitro-3-(trifluoromethyl)phenyl)malonamide]	0.5 µg/mL (≈ 1 µM)	0.5 µg/mL (≈ 1 µM)	–
C=CCNC(=O)C(CCCl)C(=O)Nc1ccc(Cl)c(C(F)(F)F)c1 (stereo not shown) [SC5050, N1-allyl-N3-(4-chloro-3-(trifluoromethyl)phenyl)-2-(2-chloroethyl)malonamide]	> 64 µg/mL	> 64 µg/mL	–
O=C(Nc1ccc(Cl)c(C(F)(F)F)c1)C(CCCl)C(=O)NC1CCCCC1 (stereo not shown) [SC5053, N1-(4-chloro-3-(trifluoromethyl)phenyl)-2-(2-chloroethyl)-N3-cyclohexylmalonamide]	> 64 µg/mL	> 64 µg/mL	–
O=C(Nc1cc(C(F)(F)F)cc(C(F)(F)F)c1)C(CCCl)C(=O)Nc1cc(C(F)(F)F)cc(C(F)(F)F)c1 [SC5032, N,N^3-bis(3,5-bis(trifluoromethyl)phenyl)-2-(2-chloroethyl)malonamide]	32 µg/mL (≈ 54.4 µM)	–	–
O=C(Nc1ccc(Cl)c(O)c1)C(CCCl)C(=O)Nc1ccc(Cl)c(O)c1 [SC5030, N^1,N^3-bis(4-chloro-3-hydroxyphenyl)-2-(2-chloroethyl)malonamide]	> 16 µg/mL	–	–
C=CCC(C(=O)Nc1cc(Cl)cc(Cl)c1)C(=O)Nc1cc(Cl)cc(Cl)c1 [SC5040, 2-allyl-N^1,N^3-bis(3,5-dichlorophenyl)malonamide]	> 32 µg/mL	> 32 µg/mL	–
Cc1ccc(NC(=O)C(CCCl)C(=O)Nc2ccc(C)c(O)c2)cc1O [SC5029, 2-(2-chloroethyl)-N^1,N^3-bis(3-hydroxy-4-methylphenyl)malonamide]	8 µg/mL (≈ 21.2 µM)	–	–
